≈ marks a conversion by molar mass, not a printed value.
How the values were obtained:
[1] = tested on: A549; assay: Antiproliferative activity against human A549 cells by MTT reduction assay; type: functional, cell-based
[2] = tested on: L1210; assay: Antiproliferative activity against mouse L1210 cells by MTT reduction assay; type: functional, cell-based
[3] = tested on: HT-29; assay: Antiproliferative activity against human HT-29 cells by MTT reduction assay; type: functional, cell-based
[4] = Toxicity in po dosed rat; type: organism-based; settings: in vivo

Row | IC50 [1] | IC50 [2] | IC50 [3] | Structure (SMILES) | LD50 [4]
1 | 1.2 µg/mL (≈ 2.71 µM) | 10 µg/mL (≈ 22.6 µM) | 1.3 µg/mL (≈ 2.94 µM) | C[C@H]1CCC/C=C/[C@@H]2C[C@H](O[C@@H]3O[C@H](CO)[C@H](O)[C@H](O)[C@H]3O)C[C@H]2[C@H](O)/C=C/C(=O)O1 [7-O-BETA-D-GALACTOSYL-BREFELDIN A] | –
2 | – | – | – | C[C@H]1CCC/C=C/[C@@H]2C[C@H](O)C[C@H]2[C@H](O)/C=C/C(=O)O1 [BREFELDIN A] | 275 mg/kg

From ChEMBL document CHEMBL1149063, “Secondary metabolites by chemical screening, 26.1 7-O-beta-D-galactosyl-brefeldin A via transglycosylation with Penicillium brefeldianum” (J Nat Prod, 1994)
